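Five concentrations, 48 hours, 96-well plates. Here, GI50 denotes the concentration required for 50% inhibition of growth.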 Calls of active or inactive are those of the source. Cut-off read from the data, not from the text of the source: active = GI50 up to about 1.1 µM and inactive = higher. Where a SMILES comes first, the peptide text is derived from it. [ ]: non-standard residue; d: D form. The star is where a group is joined. ξ: configuration not given here. NMeF = CN[CH](Cc1ccccc1)C(=O)O; ξNMe2Val = CC(C)C(C(=O)*)N(C)C; NMeV = CN[CH](C(=O)O)C(C)C; OtBu = CC(C)(C)O*
What was measured:
Assay in all cases: DTP human tumour cell line panel, 48 h
DLD-1 = tested on: DLD-1
LXFL 529 = tested on: LXFL 529
M19-MEL = tested on: M19-MEL
RXF 631 = tested on: RXF 631
SNB-78 = tested on: SNB-78
XF498 = tested on: XF498
DMS-114 = tested on: DMS-114
HOP-18 = tested on: HOP-18
KM-20L2 = tested on: KM-20L2

| Compound | GI50 (DLD-1) | GI50 (LXFL 529) | GI50 (M19-MEL) | GI50 (RXF 631) | GI50 (SNB-78) | GI50 (XF498) | GI50 (DMS-114) | GI50 (HOP-18) | GI50 (KM-20L2) |
| --- | --- | --- | --- | --- | --- | --- | --- | --- | --- |
| CNC(=O)NCCN1N=C(C)/C(=C\c2ccccc2)CC1=O | > 100 µM (inactive) | > 100 µM (inactive) | > 100 µM (inactive) | > 100 µM (inactive) | > 100 µM (inactive) | > 100 µM (inactive) |  |  |  |
| O=c1cc(-c2ccccc2)oc2cc(OCCCCCCCCCCOc3ccc4c(=O)cc(-c5ccccc5)oc4c3)ccc12 |  | > 100 µM (inactive) | > 100 µM (inactive) | > 100 µM (inactive) | > 100 µM (inactive) | > 100 µM (inactive) | > 100 µM (inactive) | > 100 µM (inactive) | > 100 µM (inactive) |
| C1CCC(N=C2N(C3CCCCC3)C(=NC3CCCCC3)N2C2CCCCC2)CC1 | > 100 µM (inactive) | > 100 µM (inactive) | > 100 µM (inactive) |  |  | > 100 µM (inactive) | > 100 µM (inactive) | > 100 µM (inactive) | > 100 µM (inactive) |
| Cc1nc(N)nc(CCC(=O)Nc2cccc(C(F)(F)F)c2)c1-c1ccc(Cl)cc1 | > 100 µM (inactive) | > 100 µM (inactive) | > 100 µM (inactive) | > 100 µM (inactive) | > 100 µM (inactive) | > 100 µM (inactive) | > 100 µM (inactive) | > 100 µM (inactive) | > 100 µM (inactive) |
| CCCCCCCCCCC(O)[C@H]1CCC(C2CC[C@H]([C@H](O)CCCCCCCCCCC(O)CC3=CC(C)OC3=O)O2)O1 (stereo not given in full) | 3.67 µM (inactive) | 2.54 µM (inactive) | 2.22 µM (inactive) | 2.01 µM (inactive) | 2.32 µM (inactive) |  | < 0.01 µM (active) |  | 3.33 µM (inactive) |
| COc1ccc(/C(Cl)=C(\c2ccc(OCCN(C)C)cc2)c2ccc(OC(=O)C(C)(C)C)cc2)cc1 | 13.6 µM (inactive) | 14 µM (inactive) | 13.7 µM (inactive) |  | 16.1 µM (inactive) | 11.5 µM (inactive) | 12.2 µM (inactive) |  | 3.41 µM (inactive) |
| CCOC(=O)C1(C(=O)OCC)CC=C(C)CC12C(=O)Nc1ccccc12 (stereo not given) | > 100 µM (inactive) | > 100 µM (inactive) | > 100 µM (inactive) |  |  | > 100 µM (inactive) | > 100 µM (inactive) | > 100 µM (inactive) | > 100 µM (inactive) |
| N#[N+]c1ccccc1Sc1ccc(Cl)cc1 | > 100 µM (inactive) | > 100 µM (inactive) | > 100 µM (inactive) | 67.9 µM (inactive) | > 100 µM (inactive) | > 100 µM (inactive) | 48.1 µM (inactive) |  | > 100 µM (inactive) |
| ClC1c2ccccc2C2(c3ccccc3)OOC1(c1ccccc1)O2 (stereo not given) |  |  |  |  | 1.45 µM (inactive) |  | 0.267 µM (active) |  | 1.68 µM (inactive) |
| O=S1(=O)COc2ccccc2-c2ncncc21 | > 100 µM (inactive) | > 100 µM (inactive) | > 100 µM (inactive) | > 100 µM (inactive) | > 100 µM (inactive) |  | > 100 µM (inactive) | > 100 µM (inactive) | > 100 µM (inactive) |
| CC1=CC2CCC1(C)C/C2=C(/C)OC=O (stereo not given) | > 100 µM (inactive) | > 100 µM (inactive) | > 100 µM (inactive) |  | > 100 µM (inactive) | > 100 µM (inactive) | > 100 µM (inactive) | > 100 µM (inactive) | > 100 µM (inactive) |
| CC(C)(C)OC(=O)N1CC(C)(C)N2C(=O)C3(CCCO3)C12 (stereo not given) | > 100 µM (inactive) | > 100 µM (inactive) | > 100 µM (inactive) |  | > 100 µM (inactive) |  | > 100 µM (inactive) | > 100 µM (inactive) | > 100 µM (inactive) |
| COC(=O)C12C3C4C1C1C2C3C41I (stereo not given) | > 100 µM (inactive) | > 100 µM (inactive) | > 100 µM (inactive) | > 100 µM (inactive) | > 100 µM (inactive) | > 100 µM (inactive) | > 100 µM (inactive) | > 100 µM (inactive) | > 100 µM (inactive) |
| CC(C)C(C(=O)N(C)C(Cc1ccccc1)C(=O)N(C)C(C(=O)N(C)C(C(=O)N1CCCC1C(=O)OC(C)(C)C)C(C)C)C(C)C)N(C)C (stereo not given) (ξNMe2Val-[NMeF][NMeV][NMeV]P-OtBu; configuration not given here) |  | 31.8 µM (inactive) | 78.3 µM (inactive) |  |  | 30.8 µM (inactive) | 31.7 µM (inactive) |  | 20.8 µM (inactive) |
| CCC(Oc1ccc(OC)c2c1C(=O)CCC2)C(=O)O (stereo not given) | > 100 µM (inactive) | > 100 µM (inactive) | > 100 µM (inactive) |  | > 100 µM (inactive) | > 100 µM (inactive) | > 100 µM (inactive) |  |  |
| CC(C)N1CCC2(CC1)NNc1ncccc1-n1cccc12 | > 100 µM (inactive) |  | > 100 µM (inactive) |  | > 100 µM (inactive) | > 100 µM (inactive) | > 100 µM (inactive) | > 100 µM (inactive) |  |
| Oc1nnc(CNc2ccc(Cl)cc2Cl)c2ccccc12 | 21.2 µM (inactive) | 17.1 µM (inactive) | 33 µM (inactive) | > 100 µM (inactive) | 62.7 µM (inactive) |  | 13.9 µM (inactive) | 23.1 µM (inactive) | 25.6 µM (inactive) |
| CN(C)/C=N\c1ccn(CCO)c(=O)n1 | > 100 µM (inactive) | > 100 µM (inactive) | > 100 µM (inactive) | > 100 µM (inactive) | > 100 µM (inactive) |  | > 100 µM (inactive) | > 100 µM (inactive) | > 100 µM (inactive) |
| CC(=O)NC1=C(NCC(C)C)C(=O)c2ccccc2C1=O | 19 µM (inactive) | 16.1 µM (inactive) | 18.7 µM (inactive) |  | 31.1 µM (inactive) | 14 µM (inactive) | 14.7 µM (inactive) | 12.8 µM (inactive) | 21.2 µM (inactive) |
| CCn1c(=O)c2ccccc2n2c(=O)c3cc4ccccc4cc3nc12 | > 100 µM (inactive) | > 100 µM (inactive) | > 100 µM (inactive) |  | 39.8 µM (inactive) | 15.8 µM (inactive) | > 100 µM (inactive) |  | > 100 µM (inactive) |
| O=C(Nc1c(O)[nH]c(=S)[nH]c1=O)c1ccc2ccccc2n1 | > 100 µM (inactive) | > 100 µM (inactive) | > 100 µM (inactive) | > 100 µM (inactive) | > 100 µM (inactive) |  | > 100 µM (inactive) | > 100 µM (inactive) | > 100 µM (inactive) |

— ChEMBL document CHEMBL1201862, “PubChem BioAssay data set” (2004)
